Measured values as given in article PMC8232704, “Hydrophobic Tagging-Mediated Degradation of Transcription Coactivator SRC-1” (International Journal of Molecular Sciences, 2021).
Bridge positions count the residues as written; N and C are the ends. Square brackets hold non-standard residues; d marks the D form. Peptide text beside a SMILES is read from it. N(1-adamantyl)Gly = O=C(O)CNC12CC3CC(CC(C3)C1)C2; Cha = N[C@@H](CC1CCCCC1)C(=O)O; S5 = C=CCCC[C@](C)(N)C(=O)O; PEG3 = NCCOCCOCCOCCC(=O)O

Assays:
[1] = system: CSF-1 mRNA in MDA-MB-231 cells; test: RT-qPCR of CSF-1 mRNA; type: cell-based, human; conditions: 18 h, RT-qPCR normalized to 18S
Procedure: (§1) Quantitative real-time PCR was performed for CSF-1, E-cadherin, and 18S (as a reference gene) mRNAs. MDA-MB-231 cells (1.2 × 10^5 cells/well) were seeded into a 12-well plate and incubated at 37 °C with 5% CO2 for 24 h. These cells were treated with indicated compounds (YL2, adamantane, ND1-YL2, or YL2-HyT6) for 18 h in Opti-MEM medium. After cells were washed with cold DPBS, mRNAs were isolated from these cells using an AccuPrep Universal RNA extraction kit (Bioneer, Daejeon, Korea). Then 1.5 µg of mRNAs were reverse-transcribed using AccuPower RocketScript Cycle RT PreMix (Bioneer) to generate complementary DNAs. RT-qPCR for CSF-1, E-cadherin, and 18S was performed with a StepOnePlus Real-Time PCR System (Applied Biosystems, Waltham, MA, USA) and SYBR Green mix (Applied Biosystems) according to the manufacturer’s instructions with gene-specific primers (Table 1).

[2] = system: E-cadherin mRNA in MDA-MB-231 cells; test: RT-qPCR of E-cadherin mRNA; type: cell-based, human; conditions: 18 h, RT-qPCR normalized to 18S
Procedure: as §1

[3] = molecular target: T1, SRC-1 in MDA-MB-231 cells (Homo sapiens, UniProt Q15788); test: Immunoblot analysis of cellular SRC-1 levels (SRC-1 degradation); type: cell-based; conditions: for SRC-1 (%): normalized to GAPDH and DMSO controls
T1 construct: endogenous in cells; host or cells: MDA-MB-231
Procedure: MDA-MB-231 and HEK293T cells were cultured in a medium containing Dulbecco’s modified eagle medium (DMEM) supplemented with 1% penicillin–streptomycin (PS) and 10% FBS with 5% CO2 at 37 °C.
MDA-MB-231 cells were seeded into 6-well pates (Corning, 3506) at a density of 6 × 10^5 cell per well. After incubation at 37 °C for 24 h, cells were treated with synthesized compounds in Opti-MEM medium for 12, 18, or 24 h. Cells were washed twice with cold Dulbecco’s phosphate-buffered saline (DPBS) prior to cell lysis using a cell lysis buffer (1% Triton X-100, 150 mM NaCl, 50 mM Tris-HCl pH 7.6, 0.1% SDS, 0.5% sodium deoxycholate, and 1 × protease inhibitor cocktail) on ice. Cell lysates were centrifuged at 13,000 rpm at 4 °C for 15 min. The supernatant was collected, and protein concentration was determined using Pierce^TM 660nm protein assay. A 6 × SDS loading buffer was added to the cell lysate and incubated at 95 °C for 5 min. The same amount of protein was subjected to SDS-PAGE and transferred to PVDF membranes. After blocking membranes with 5% skim milk in TBST (Tris-buffered saline with 0.05% Tween 20), membranes were incubated with a primary antibody at 4 °C overnight. Membranes were then incubated with HRP-linked secondary antibody at rt for 1 h and developed with Pico ECL solution. In MG-132 and 17-AAG treatment experiments, MDA-MB-231 cells were cotreated with synthesized compounds and MG-132 (5 μM) or 17-AAG (1 μM) at 37 °C for 18 h.

MDA-MB-231 cells = test: Gap closure migration (wound healing) assay; type: cell-based, human; conditions: 20 µM, 72 h
Procedure: MDA-MB-231 cells (2.8 × 10^4 cells/well) were seeded into Culture-Insert 2 wells (ibidi, 80209) placed in a 35 mm culture dish. After incubation at 37 °C with 5% CO2 for 24 h, Culture-Insert 2 wells were carefully removed from the culture dish with a sterilized tweezer. These cells were then treated with indicated compounds (YL2, adamantane, ND1-YL2, or YL2-HyT6) in Opti-MEM medium for 72 h. Cell images were obtained with a culture microscope (Olympus, Tokyo, Japan, CKX41). The cell-free area of the image was quantified with ImageJ software (NIH, Bethesda, MD, USA). The relative gap-closure area was calculated using the following equation: […] where A was the cell-free area. (2) Gap−Closure %=At=0 h−At=72 h/At=0 h×100

T1 sequence (Q15788 whole entry): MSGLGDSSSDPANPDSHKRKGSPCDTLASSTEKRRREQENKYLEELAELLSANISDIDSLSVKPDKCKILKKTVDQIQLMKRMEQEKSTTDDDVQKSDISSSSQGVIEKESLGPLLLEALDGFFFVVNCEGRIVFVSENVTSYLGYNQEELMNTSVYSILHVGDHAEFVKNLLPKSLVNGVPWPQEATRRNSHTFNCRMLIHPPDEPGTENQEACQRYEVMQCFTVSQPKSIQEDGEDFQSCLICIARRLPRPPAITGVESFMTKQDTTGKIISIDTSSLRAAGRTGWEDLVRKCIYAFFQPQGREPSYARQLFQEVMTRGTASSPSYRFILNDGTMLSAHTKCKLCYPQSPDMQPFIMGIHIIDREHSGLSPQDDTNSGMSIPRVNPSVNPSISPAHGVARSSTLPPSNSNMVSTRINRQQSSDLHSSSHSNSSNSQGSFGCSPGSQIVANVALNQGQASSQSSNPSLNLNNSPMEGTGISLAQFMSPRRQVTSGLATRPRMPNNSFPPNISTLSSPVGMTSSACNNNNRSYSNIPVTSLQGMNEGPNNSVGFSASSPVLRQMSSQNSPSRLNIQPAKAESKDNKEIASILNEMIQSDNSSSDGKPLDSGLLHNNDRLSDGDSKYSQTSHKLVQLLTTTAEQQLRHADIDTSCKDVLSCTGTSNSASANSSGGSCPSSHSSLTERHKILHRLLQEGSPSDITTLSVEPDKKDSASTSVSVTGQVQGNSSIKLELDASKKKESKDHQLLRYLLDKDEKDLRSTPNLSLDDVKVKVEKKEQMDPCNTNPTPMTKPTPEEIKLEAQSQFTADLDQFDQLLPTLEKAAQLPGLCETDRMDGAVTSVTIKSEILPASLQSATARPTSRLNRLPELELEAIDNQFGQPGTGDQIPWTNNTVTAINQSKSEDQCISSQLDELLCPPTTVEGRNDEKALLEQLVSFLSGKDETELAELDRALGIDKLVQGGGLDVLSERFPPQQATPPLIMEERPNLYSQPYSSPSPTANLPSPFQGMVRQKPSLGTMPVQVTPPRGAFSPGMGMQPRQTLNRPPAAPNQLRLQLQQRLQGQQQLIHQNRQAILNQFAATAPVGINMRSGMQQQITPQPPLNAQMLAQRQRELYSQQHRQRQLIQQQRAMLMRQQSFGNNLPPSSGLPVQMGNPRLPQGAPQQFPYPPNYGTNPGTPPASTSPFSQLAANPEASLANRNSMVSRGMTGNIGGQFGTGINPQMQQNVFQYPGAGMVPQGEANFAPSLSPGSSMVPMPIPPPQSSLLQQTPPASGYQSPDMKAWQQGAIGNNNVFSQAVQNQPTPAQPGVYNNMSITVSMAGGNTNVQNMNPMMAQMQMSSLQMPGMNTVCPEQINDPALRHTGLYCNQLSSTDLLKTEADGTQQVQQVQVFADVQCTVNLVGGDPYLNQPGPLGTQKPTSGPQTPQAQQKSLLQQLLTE

CC(C)C[C@H](NC(=O)CCOCCOCCOCCNC(=O)CNC12CC3CC(CC(C3)C1)C2)C(=O)N[C@@H](CC(C)C)C(=O)N1CCC[C@H]1C(=O)N1CCC[C@H]1C(=O)N[C@H](C(=O)N[C@@H](CCC(=O)O)C(=O)N[C@@H](CCC(N)=O)C(=O)N[C@@H](CC(=O)O)C(=O)N[C@@H](CC(C)C)C(=O)N[C@@]1(C)CCC/C=C\CCC[C@@](C)(C(=O)N[C@@H](Cc2ccc(O)cc2)C(N)=O)NC(=O)[C@H](CC2CCCCC2)NC(=O)[C@H](CC(C)C)NC(=O)[C@H](CCCCN)NC1=O)[C@@H](C)O [YL2-HyT6] (H-[N(1-adamantyl)Gly][PEG3]LLPPTEQDL[S5]KL[Cha][S5]Y-NH2; staple (Z) 12-16; C-terminus assumed)
CSF-1 mRNA expression level [1]: dose-dependent decrease in CSF-1 | E-cadherin mRNA expression level [2]: increase in E-cadherin | SRC-1 (%) ([3]; MDA-MB-231 cells, 10 μM compound, 18 h): 30% | SRC-1 (%) ([3]; MDA-MB-231 cells, 20 μM compound, 18 h): 20% | Time to recovery of SRC-1 after washing out compound ([3]; MDA-MB-231 cells, 20 μM for 18 h, then washed away): ≤ 12 h | Time-dependent SRC-1 degradation ([3]; MDA-MB-231 cells, 20 μM, various time periods up to 24 h): evidently degraded after 6 h | SRC-1 (%) ([3]; MDA-MB-231 cells, 50 μM compound, 18 h): 13% | SRC-1 degradation activity compared within YL2-HyT1–6 ([3]; MDA-MB-231 cells, 12, 18 and 24 h): most effective SRC-1 degradation activity at all three time points | DC50 ([3]; MDA-MB-231 cells, 18 h, immunoblot quantitation (Figure S4), three independent experiments, read-out: DC50 (reduction of cellular SRC-1 levels)): ~5 µM | SRC-1 levels on cotreatment with Hsp90 inhibitor 17-AAG ([3]; MDA-MB-231 cells, YL2-HyT6 2.5 μM with 17-AAG (1 μM), 18 h): SRC-1 degradation even at a concentration that did not affect SRC-1 levels previously | SRC-1 levels on cotreatment with proteasome inhibitor MG-132 ([3]; MDA-MB-231 cells, cotreated with MG-132 (5 μM), 18 h): SRC-1 levels were not changed in the presence of MG-132 | Wound gap closure (cell migration) (MDA-MB-231 cells): significantly inhibited gap closing
